# What was measured:
# Type in all cases: physicochemical
# [1] = Biorelevant solubility (water, saline, FaSSIF, FeSSIF, FaSSGF, 37° C.)
# Experimental: Due to pH drift in a previous study (see Example 12.1), in order to obtain a more accurate pH solubility evaluation, a study was designed using water, saline, FaSSIF (fasted state simulated intestinal fluid, pH 6.5), […] (fed state simulated intestinal fluid, pH 5.0), and FaSSGF (fasted state simulated gastric fluid, pH 1.6), which would ensure ending pH and buffer pH remained the same. […] The study design was successful, and all initial pH values were maintained. […] The pH was measured constantly during the addition up to the point of movement in the buffer, at which point additions were halted and the solutions or suspensions matured over 48 hours at 37° C. Samples were taken for solubility evaluation at the specified time-points and clarified through 0.45 micron filters and pH measured on the settled suspensions. Solubility was determined vs a 0.5 mg/mL reference. 35 mg portions were added to FaSSGF and FeSSIF maintaining solutions.
# [2] = Dynamic Vapor Sorption (DVS) analysis with XRPD after equilibration
# Experimental: Sorption isotherms were obtained using a Hiden Isochema moisture sorption analyzer (model IGAsorp), controlled by IGAsorp Systems Software V6.50.48. The sample was maintained at a constant temperature (25° C.) by the instrument controls. The humidity was controlled by mixing streams of dry and wet nitrogen, with a total flow of 250 mL·min^−1. The instrument was verified for relative humidity content by measuring three calibrated Rotronic salt solutions (10%, 50%, 88%). The weight change of the sample was monitored as a function of humidity by a microbalance (accuracy+/−0.005 mg). A defined amount of sample was placed in a tared mesh stainless steel basket under ambient conditions. A full experimental cycle typically consisted of three scans (sorption, desorption and sorption) at a constant temperature (25° C.) and 10% RH intervals over a 0-90% range (60 minutes for each humidity level). […]
# This water content decreased as relative humidity decreased in the first desorption cycle.
# The solid absorbed 3.39% water over the humidity range. […] The profile was similar to that of Form C in Example 7.2.
# [3] = Solid state stability under desiccant conditions (two weeks)
# Experimental: Stability of Compound 1 Hydrochloride Forms A and C was evaluated under desiccant conditions. Compound 1 Hydrochloride Form A (Type 1 Lot) and a mixture comprising Compound 1 Hydrochloride Form A (Type 2 Lot) and Form C were stored under desiccant conditions for a two week period. Solids were then re-analyzed using methods described herein.
# [4] = Solid state stability in sealed vial (XRPD, TGA, HPLC)
# Experimental: High performance liquid chromatography (HPLC) was performed according to the conditions described in Table 1: […] Upon storage for the appropriate period, the entire sample was removed, and the resulting solids assessed via XRFD, HPLC and TGA. Sample preparation for HPLC was conducted using deionized water and a working concentration of 0.5 mg/mL. […] A control sample was packed and stored in an equivalent manner and tested at T=2 and 4 weeks. Form A was stable at 40° C. and 80° C. for at least up to 4 weeks.
# [5] = Drying studies of Compound 1 Hydrochloride (XRPD, TGA)
# Experimental: Compound 1 Hydrochloride Form A was then subjected to drying under various conditions.
# Drying studies of Compound 1 Hydrochloride Form A (Type 1 Lot) were performed.
# Variability in the drying profiles of different lots of Compound 1 Hydrochloride were noted, particularly with regards to the transition between Form A and Form C. The variable behavior appeared to depend upon the nature of the input Form A batch (e.g., how it was generated and then conditioned, if at all, prior to drying, and/or if excess hydrochloric acid was present).
# Concentrated HCl (154 μL, 1 eqiuv) was added which clarified the suspension to a deep orange solution. The mixture was equilibrated for 30 minutes before cooling gradually to room temperature. A thin yellow suspension resulted. The solvent volume was reduced by 50% which thickened the suspension. The suspension was matured overnight, following which the solid was filtered to isolate the solids. The solid was air dried for ˜30 minutes giving a yellow solid (damp mass: 1.24 g; pH measured at 5.0). The XRPD pattern of the damp solid corresponded with Compound 1 Hydrochloride Form H. Analysis of the damp solid by DSC and TGA indicated a water content of 8.2%, which was fairly labile up ˜75° C.
# Compound 1 Hydrochloride Form H was then subjected to a drying study under various conditions.
# The solids were further subjected to prolonged drying.
# [6] = 40° C., sealed vial, T = 1 week
# [7] = 40° C., sealed vial, T = 2 weeks
# [8] = 40° C., sealed vial, T = 4 weeks
# [9] = 80° C., sealed vial, T = 1 week
# [10] = 80° C., sealed vial, T = 2 weeks
# [11] = 80° C., sealed vial, T = 4 weeks
# [12] = 150° C., sealed vial, T = 1 week
# [13] = Dry in vacuo at 25° C., T = 24 h
# [14] = Dry in vacuo at 25° C., T = 96 h
# [15] = Dry in vacuo at 25° C., T = 120 h
# [16] = Dry in vacuo at 45° C., T = 24 h
# [17] = Dry in vacuo at 45° C., T = 96 h
# [18] = Dry in vacuo at 45° C., T = 120 h
# [19] = Dry in vacuo at 70° C., T = 24 h
# [20] = Dry in vacuo at 70° C., T = 96 h
# [21] = Dry in vacuo at 70° C., T = 120 h
smiles,measurement,setting,value
COC(=O)c1ccc2c(c1)NC(=O)/C2=C(\Nc1ccc(N(C)C(=O)CN2CCN(C)CC2)cc1)c1ccccc1.Cl [Compound 1 Hydrochloride Form A (Type 1 Lot)],solubility in saline,[1],> 50 mg/mL
same,solubility in water,[1],> 50 mg/mL
same,Final pH,[1]; 0.9% NaCl,3.03
same,Solubility (mg/mL) T = 1 h,[1]; 0.9% NaCl,>50 mg/mL
same,Solubility (mg/mL) T = 3 h,[1]; 0.9% NaCl,>50 mg/mL
same,Solubility (mg/mL) T = 6 h,[1]; 0.9% NaCl,>50 mg/mL
same,Solubility (mg/mL) T = 24 h,[1]; 0.9% NaCl,>50 mg/mL
same,Final pH,[1]; FaSSGF (starting pH 1.6),1.65
same,Solubility (mg/mL) T = 1 h,[1]; FaSSGF (starting pH 1.6),>35 mg/mL
same,Solubility (mg/mL) T = 3 h,[1]; FaSSGF (starting pH 1.6),>35 mg/mL
same,Solubility (mg/mL) T = 6 h,[1]; FaSSGF (starting pH 1.6),>35 mg/mL
same,Solubility (mg/mL) T = 24 h,[1]; FaSSGF (starting pH 1.6),>35 mg/mL
same,Final pH,[1]; FaSSIF (starting pH 6.5),6.13
same,Solubility (mg/mL) T = 1 h,[1]; FaSSIF (starting pH 6.5),2.41 mg/mL
same,Solubility (mg/mL) T = 3 h,[1]; FaSSIF (starting pH 6.5),3.38 mg/mL
same,Solubility (mg/mL) T = 6 h,[1]; FaSSIF (starting pH 6.5),3.74 mg/mL
same,Solubility (mg/mL) T = 24 h,[1]; FaSSIF (starting pH 6.5),5.12 mg/mL
same,Final pH,[1]; FeSSIF (starting pH 5.0),4.98
same,Solubility (mg/mL) T = 1 h,[1]; FeSSIF (starting pH 5.0),>35 mg/mL
same,Solubility (mg/mL) T = 3 h,[1]; FeSSIF (starting pH 5.0),>35 mg/mL
same,Solubility (mg/mL) T = 6 h,[1]; FeSSIF (starting pH 5.0),>35 mg/mL
same,Solubility (mg/mL) T = 24 h,[1]; FeSSIF (starting pH 5.0),>35 mg/mL
same,Final pH,[1]; Water,3.04
same,Solubility (mg/mL) T = 1 h,[1]; Water,>50 mg/mL
same,Solubility (mg/mL) T = 3 h,[1]; Water,>50 mg/mL
same,Solubility (mg/mL) T = 6 h,[1]; Water,>50 mg/mL
same,Solubility (mg/mL) T = 24 h,[1]; Water,>50 mg/mL
same,solubility in FeSSIF,[1]; pH 5.0,> 50 mg/mL
same,XRPD across the humidity range over the course of DVS analysis,[2]; 0-90% RH,Form A remained
same,water absorbed over the humidity range (DVS),"[2]; 25° C., 0-90% RH",13.4 wt %
same,reversibility of water uptake (DVS),[2]; as relative humidity decreased,reversible
same,water uptake (DVS),"[2]; high humidity, comparison stated in Example 7.3",above 13%
same,water uptake up to 30% RH (DVS),[2]; up to 30% RH,8.5 wt %
same,Appearance After Storage,[3],Yellow powder
same,TGA weight reduction,[3],Weight reduction of 5.6%
same,XRPD,[3],Form A
same,solid state stability in sealed vial,"[4]; 40° C. and 80° C., at least up to 4 weeks",stable
same,HPLC (%),[4]; [6],99.43%
same,TGA (%),[4]; [6],12.01%
same,HPLC (%),[4]; [7],99.43%
same,TGA (%),[4]; [7],12.15%
same,HPLC (%),[4]; [8],99.65%
same,TGA (%),[4]; [8],11.6%
same,XRPD,[4]; [8],Form A
same,HPLC (%),[4]; [9],99.53%
same,TGA (%),[4]; [9],3.76%
same,HPLC (%),[4]; [10],99.45%
same,TGA (%),[4]; [10],3.71%
same,HPLC (%),[4]; [11],99.59%
same,TGA (%),[4]; [11],3.35%
same,HPLC (%),[4]; [12],36.6%
same,TGA (%),[4]; [12],1.14%
same,HPLC (%),"[4]; Ambient (control), T = 0",99.54%
same,TGA (%),"[4]; Ambient (control), T = 0",12.07%
same,HPLC (%),"[4]; Ambient (control), T = 2 weeks",99.43%
same,TGA (%),"[4]; Ambient (control), T = 2 weeks",11.99%
same,HPLC (%),"[4]; Ambient (control), T = 4 weeks",99.53%
same,TGA (%),"[4]; Ambient (control), T = 4 weeks",12.15%
same,XRPD,"[4]; Ambient (control), T = 4 weeks",Form A
same,TGA (%),[5]; [13],11.12%
same,XRPD,[5]; [13],Form A
same,TGA (%),[5]; [14],10.14%
same,XRPD,[5]; [14],Form A
same,TGA (%),[5]; [15],10.47%
same,XRPD,[5]; [15],Form A
same,TGA (%),[5]; [16],9.84%
same,XRPD,[5]; [16],Form A
same,TGA (%),[5]; [17],8.71%
same,XRPD,[5]; [17],Form A
same,TGA (%),[5]; [18],10.19%
same,XRPD,[5]; [18],Form A
same,TGA (%),[5]; [19],10.48%
same,XRPD,[5]; [19],Form A
same,TGA (%),[5]; [20],8.19%
same,XRPD,[5]; [20],Form A
same,TGA (%),[5]; [21],10.85%
same,XRPD,[5]; [21],Form A
same,TGA (%),"[5]; T = 0, before drying",9.673%

# — patent US20230312561A1, “SOLID FORMS OF (Z)-METHYL 3-(((4-(N-METHYL-2-(4-METHYLPIPERAZIN-1-YL)ACETAMIDO)PHENYL)AMINO)(PHENYL)METHYLENE)-2-OXO-2,3-DIHYDRO-1H-PYRROLO[2,3-B]PYRIDINE-6-CARBOXYLATE AND SALTS THEREOF” (Angion Biomedica Corp., priority 2020, published 2023)
